Data reported in patent US6177592A, “Compounds” (priority 1997, dated 2001).
“Also recorded” adds a separate entry of the source.

Experiments:
[1] = tested on: HL-60 cells; test: Apoptosis in HL-60 cells (apoptic bodies, DNA fragmentation); format: cell-based, human; conditions: for apoptic bodies in the cells: at each of the cell-growth-inhibiting concentrations
Method: (1) Each 0.5 ml of 0.2 mM CM, 0.8 mM CM or 1.6 mM CM was added to 4.5 ml of RPMI 1640 medium containing 10% of fetal calf serum and 2.5×10^5HL-60 cells (promyelocytic leukemia cell) (ATCC CCL-240) and incubated at 37° C. for 24 hours or 48 hours in the presence of 5% carbon dioxide gas and the numbers of viable cells were measured.
(2) To each of the wells of a 96-well microtiter plate was added 8, 40, 200 or 1000 μM aqueous solution of GM or 10 μl of water as a control. HL-60 (ATCC CCL-240) was suspended in an RPMI 1640 medium containing 10% of fetal calf serum to make the concentration 5×10^4 cells/ml and each 90 μl thereof was placed in each well of the above-mentioned microtiter plate and incubated at 37° C. for 48 hours in the presence of 5% carbon dioxide. Incubation was conducted for four hours more after addition of 10 μl of a solution (5 mg/ml) of 3-(4,5-dimethylthiazol-2-yl)-2,5-diphenyltetrzolium bromide (MTT; manufactured by Sigma) in a phosphate-buffered saline solution and the state of growth of the cells was observed under a microscope. Further, 100 μl of 2-propanol containing 0.04N hydrochloric acid was added followed by stirring and an absorbance at 590 nm was measured.
(4) HL-60 cells (ATCC CCL240) which were incubated at 37° C. in an RPMI 1640 medium (manufactured by Nissui) containing 10% of fetal calf serum (manufactured by Gibco) treated at 56° C. for 30 minutes were suspended in the above medium to make the concentration 2.5×10^5cells/4.5 ml. To this suspension was added 0.5 ml of 100 μM aqueous solution of GM (final concentration: 10 μM) followed by incubating at 37° C. in the presence of 5% carbon dioxide gas for 24 hours, 48 hours and 72 hours.
(5) To each well of the 96-well microtiter plate was added 4.12, 12.3, 37.0, 111, 333 or 1000 μM aqueous solution of GD or 10 μl of water as a control. HL-60 (ATCC CCL-240) was suspended in an RPMI 1640 medium containing 10% of fetal calf serum to make the concentration 5×10^4 cells/ml and each 90 μl thereof was placed in each well of the above-mentioned microtiter plate followed by incubating at 37° C. for 48 hours in the presence of 5% carbon dioxide gas. The incubation was conducted for four hours more after addition of 10 μl of 5 mg/ml solution of 3-(4,5-dimethylthiazol-2-yl)-2,5-diphenyltetrazolium bromide (MTT; manufactured by Sigma) in a phosphate-buffered saline solution and the state of growth of the cells was observed under a microscope. In the meanwhile, 100 μl of 2-propanol containing 0.04N HCl was added followed by well stirring and the absorbance at 590 nm was measured.

[2] = tested on: Sarcoma-180; test: Sarcoma-180/ICR mice macrobiotic effect; format: in vivo
[3] = tested on: IMC; test: IMC/CDF1 mice macrobiotic effect; format: in vivo
[4] = tested on: EAC; test: EAC/DDY mice macrobiotic effect; format: in vivo
[5] = tested on: Bacillus subtilis IFO 3021; test: Antibacterial activity, viable cell numbers; format: cell-based
Method: Bacillus subtilis IFO 3021 was incubated (by mans of a seed culture) overnight in a sensitive bouillon medium (manufactured by Nissui). Absorbance at 600 nm was measured and viable cell numbers were calculated from the previously-prepared calibration curve showing the relation between the viable cell numbers and absorbance at 600 nm. The seed-cultured liquid was diluted with a fresh sensitive bouillon medium to make the concentration 1×10^6 cells/ml and each 180 μl thereof was placed in each well of the 96-well microtiter plate. Each 20 μl of aqueous solution of GM (4 mg/ml or 2 mg/ml) or water was added to each well followed by allowing to a stationary culture at 37° C. for one night (main incubation) In the meanwhile, a part of the seed culture liquid was diluted with sterilized water, spread onto a sensitive bouillon agar plate medium and incubated at 37° C. for one night and the colonies were counted to measure the precise viable cell numbers.
The cultured liquid in each of the wells was diluted with sterilized water, spread onto a sensitive bouillon agar plate medium and incubated at 37° C. for one night and the colonies were counter to measure the viable cell numbers.

[6] = Blood sugar, insulin and lipid in KK-Ay mice; format: in vivo, mouse (KK-A^y)
Method: KK-A^y Mice (male; four weeks age) were purchased from Clea Japan and, after breeding at our end until ten weeks age, GM was orally administered for 21 days and its influence on sugar, insulin and lipid in blood was investigated. Doses of GM were 30, 100 and 300 mg/kg.
Incidentally, the animals were grouped into four (each group consisting of ten animals) and the four groups were administered with physiological saline solution (5 ml/kg) or 30, 100 or 300 mg/5 ml/kg of GM. Each test substance was orally administered once daily for 21 days and, on the final day of administration, the animals were anesthetized with ether after four hours from the administration of the test substance and blood was collected from artery of lower abdomen. Insulin in serum was measured by an enzyme-immunoassay (commercially available kit: Glazym Insulin-EIATEST,manufactured by Wako Pure Chemicals). Sugar, triglycerides and free fatty acids in serum were measured using an automatic analyzer (type 7070, manufactured by Hitachi) by a hexonase-G6PDH method, a GPO.cndot.DAOS method and an ACS.cndot.ACOD method, respectively. Total cholesterol in serum was measured using an automatic analyzer (type 7070, manufactured by Hitachi) by a cholesterol-oxidase, DAOS method.

[7] = 30, 100, 300 mg/kg oral, 21 days

SMILES	apoptic bodies in the cells [1]	macrobiotic effect [2]	macrobiotic effect [3]	macrobiotic effect [4]	antibacterial activity (in words) ([5]; compared with GM)	triglycerides in serum [6, 7]	fragmentation of DNA into a chromatin unit ([1]; 10 μM GM, agarose gel electrophoresis)	viable cell numbers ([5]; 400 μg/ml final, one night at 37° C., water 1.3×10^8)	blood sugar [6, 7]	free fatty acids in serum [6, 7]	insulin in serum [6, 7]	total cholesterol in serum [6, 7]	effect of lowering blood sugar, insulin and lipid ([6]; Example 13, summary)
N[C@@H](CSC1C=C(O)C(=O)C1)C(=O)O (some centres unmarked) [CM]	apoptic bodies were detected	same macrobiotic effect	same macrobiotic effect	same macrobiotic effect	same results	decreased							
N[C@@H](CCC(=O)N[C@@H](CSC1C=C(O)C(=O)C1)C(=O)NCC(=O)O)C(=O)O (some centres unmarked) [GM, 2-hydroxy-4-glutathion-S-yl-2-cyclopenten-1-one]	apoptic bodies were formed in the cells; also recorded: aggregation of nuclei, reduction in size of the cells and production of apoptic bodies were detected	same macrobiotic effect	same macrobiotic effect	same macrobiotic effect			fragmentation of DNA into a chromatin unit was observed	4.4×10^7 cells/ml	decreased in each of the groups administered with GM	decreased	decreased in each of the groups administered with GM	de creased	effect of lowering blood sugar, insulin and lipid
